Tests used:
[1] = system: A431 EGFR wild-type cell line; experiment: A431 EGFR wild-type cell proliferation assay (CellTiter Glo, 72 h); format: cell-based; settings: Homo sapiens, A-431, CTG, read-out: A431 EGFR WT IC50
Method: (§1) Cell line: Ba/F3 cells with stable overexpression of Δ19del/T790M/C797S or L858R/T790M/C797S mutant genes, named Ba/F3-Δ19del/T790M/C797S and Ba/F3-L858R/T790M/C797S, and A431 EGFR wild-type cell line.
(§2) RPMI 1640 and 10% FBS and 1% PS; _EM, 10% PBS and 1% PS
(§3) a) Dilute the test compound (20 mM stock solution) to 10 mM with 100% DMSO as the starting concentration, and then serially dilute 3 times with a “9+0” concentration in 96-well dilution plate (Cat #P-05525, Labcyte);
(§4) b) Dilute compound solution thereof to 1:100 in medium to prepare 10-fold working solution;
(§5) a) Centrifuge the growth cells in logarithmic phase at 1000 rpm for 5 minutes, resuspend the cells in culture medium, and then count the cells;
(§6) b) Inoculate the cells into a 96-well cell culture plate with a density of 2000 cells/well;
(§7) a) The compound prepared in Step 2 was added to a cell plate with 15 μL per well at final concentrations of 1000, 333, 111.1, 37, 12.3, 4.1, 1.4, 0.5, 0.2, and 0 nM. The final concentration of DMSO was 0.1%. The blank control well is with medium (0.1% DMSO).
(§8) b) Incubate cells in an incubatorother 72 hours;
(§9) a) Take out the 96-well cell culture plate and add 50 μl CTG reagent (CellTiter Glo kit, promega, Cat #G7573);
(§10) b) Shake the plate for 2 minutes and let cool at room temperature for 10 minutes,
(§11) c) Read luminous signal value with Perkin Elmer reader.
(§12) Analysis of Experimental Data
(§13) The data were analyzed by GraphPad Prism 6.0 software to obtain the fitting curve of compound activity.
(§14) Fining compound IC50 from nonlinear regression equation:
(§15) Y=Min+(Max−Min)/(1+10^((LogIC50−X)*slope));
(§16) X: Logarithm of compound concentration; Y: luminous signal
(§17) As illustrated in examples, IC50 value is within the following range for the compound of the present invention: “A” represents “IC50≤50 nM”; “B” represents “50 nM<IC50<100 nM”.

EGFR Δ19del/T790M/C797S = EGFR Δ19del/T790M/C797S (Homo sapiens, UniProt P00533, T790M/C797S, form not given); experiment: EGFR Δ19del/T790M/C797S kinase test (mobility shift, Caliper EZ Reader); format: biochemical; settings: kinase enzymatic activity
Method: Mobility variation analysis was performed to determine the affinity of the compound for EGFRΔ19del/T790M/C797S. The enzymatic reaction scheme is as follows:
1. Prepare 1* kinase buffer as follows:
2. Preparation of compound concentration gradient: The test compound was tested with an initial concentration of 3000 nM or 100 nM, diluted in a 384 source plate to a 100% DMSO solution with 100-fold final concentration, and the compound is 3-fold diluted with Precision to 10 concentrations. A dispenser Echo 550 was used to transfer 250 nL 100-fold final concentration of the compound to the target plate OptiPlate-384F.
3. Prepare 2.5-fold final concentration of kinase solution with 1×Kinase buffer;
4. Add 10 μL of 2.5-fold final concentration of kinase solution to the compound well and the positive control well; add 10 μL of 1×Kinase buffer to the negative control well.
5. Centrifuge at 1000 rpm for 30 seconds, shake the reaction plate for well mixation, and then incubate at room temperature for 10 minutes.
6. Prepare a mixture of ATP and Kinase substrate at 5/3-fold final concentration with 1×Kinase buffer.
7. Add 15 μL mixture of 5/3-fold final concentration of ATP and substrate to start reaction.
8. Centrifuge the 384-well plate at 1000 rpm for 30 seconds, shake it well and then incubate it at room temperature for corresponding time.
9. Add 30 μL of stop detection solution to stop the kinase reaction, centrifuge at 1000 rpm for 30 seconds, shake it well.
10. Read conversion rate with Caliper EZ Reader.
% Inhibition=((Conversion%_max−Conversion%_sample)/(Conversion%_max−Conversion%_min))*100
Wherein: Conversion%_sample is the sample conversion rate reading; Conversion%_min: Mean value of negative control wells, representing the conversion rate reading of wells without enzymatic activity; Conversion%_max: Mean value of positive control wells, representing the conversion rate reading of wells without compound inhibition.
The dose-effect curve was fitted with concentration log value as X-axis and percentage inhibition rate as Y-axis. Log (inhibitor) vs. Response—Variable Slope of GraphPad Prism 5 was used to fit the dose-effect curve to obtain IC50 value of enzymatic activity for each compound.
The calculation formula is as Y=Bottom (Top−Bottom)/(1+10^((LogIC50−X)*HillSlope)).
As illustrated in examples, IC50 value is within the following range for the compound of the present invention: “A” represents “IC50≤1nM”; “B” represents “1 nM<IC50≤100nM”.

Ba/F3-Δ19del/T790M/C797S = Ba/F3-Δ19del/T790M/C797S (Homo sapiens, UniProt P00533, T790M/C797S, cells depend on it, form not given); experiment: Ba/F3-Δ19del/T790M/C797S cell proliferation assay (CellTiter Glo, 72 h); format: cell-based; settings: CTG, numeric values, read-out: BaF3 Δ19del/T790M/C797S IC50
Method: as §1, §2, §3, §4, §5, §6, §7, §8, §9, §10, §11, §12, §13, §14, §15, §16, §17

Ba/F3-L858R/T790M/C797S = Ba/F3-L858R/T790M/C797S (Homo sapiens, UniProt P00533, T790M/C797S/L858R, cells depend on it); experiment: Ba/F3-L858R/T790M/C797S cell proliferation assay (CellTiter Glo, 72 h); format: cell-based; settings: CTG, numeric values, read-out: BaF3 L858R/T790M/C797S IC50
Method: as §1, §2, §3, §4, §5, §6, §7, §8, §9, §10, §11, §12, §13, §14, §15, §16, §17

[2] = Liver microsomal clearance test, mice; format: in vitro ADME; settings: Mice liver microsomes, 0.5 mg/mL, NADPH
Method: (§18) Test 3 Liver Microsomal Clearance Test
(§19) 1. Prepare 0.5 mg/mL liver microsome diluent containing K-butter and MgCl2:
(§20) 2.1 Take 356 μL of the liver microsome diluent prepared above and add it to the preset wells of the incubation plate, the number of multiple wells n=1, mark it as the incubation plate.
(§21) 2.2 Take 4 μL of the positive control compound Verapamil (50 μM) and the working solution of the test compound (200 μM) into the above incubation plate containing 356 μL of liver microsome diluent, and mix well (The dilution solvent from the stock solution to the working solution is a mixed solvent of acetonitrile: methanol: water=1:1:2, and the final concentration of DMSO is ≤0.5%),
(§22) 2.3 Place the incubation plate in a 37° C. thermostatic oscillator (at shaking speed of 100 rpm) for pre-incubation with 10 min.
(§23) 2.4 Add 40 μL of 10 mM NADPH (add 40 μL of K-buffer to the wells without NADPH) to each reaction well to start the reaction and start timing.
(§24) 3. Sample collection and treatment:
(§25) 3.1 After adding NADPH to start the reaction, immediately take out 50 μL of the sample and add it to the precipitation plate pre-added with 400 μL of stop solution, and shake on an oscillator at 600 rpm for 5 min at room temperature as a 0 min sample.
(§26) 3.2 At the predetermined time points of 5 min, 15 min and 45 min, take out 50 μL of sample from the incubation plate and add it to the precipitation plate. The subsequent steps were the same as the treatment of 0 min sample. 3.3 After balancing, centrifuge above precipitation plate at 3200 rpm for 10 min at 4° C.
(§27) 3.4 Take 50 μL of the supernatant after centrifugation and add it to pre-added 20% acetonitrile water at appropriate proportion, shake on an oscillator at 600 rpm for 2 min at room temperature, mix well, and put it into the LC-MS/MS sampler for sample injection.
as §12
1. […]

[3] = Liver microsomal clearance test, dog; format: in vitro ADME; settings: Dog liver microsomes, 0.5 mg/mL, NADPH
Method: as §18, §19, §20, §21, §22, §23, §24, §25, §26, §27, §12
1. […]

[4] = Liver microsomal clearance test, human; format: in vitro ADME; settings: Human liver microsomes, 0.5 mg/mL, NADPH
Method: as §18, §19, §20, §21, §22, §23, §24, §25, §26, §27, §12
1. […]

[5] = Liver microsomal clearance test, rat; format: in vitro ADME; settings: Rat liver microsomes, 0.5 mg/mL, NADPH
Method: as §18, §19, §20, §21, §22, §23, §24, §25, §26, §27, §12
1. […]

[6] = Liver microsomal clearance test, monkey; format: in vitro ADME; settings: Monkey liver microsomes, 0.5 mg/mL, NADPH
Method: as §18, §19, §20, §21, §22, §23, §24, §25, §26, §27, §12
1. […]

Chain of Ba/F3-L858R/T790M/C797S (P00533 whole entry T790M/C797S/L858R): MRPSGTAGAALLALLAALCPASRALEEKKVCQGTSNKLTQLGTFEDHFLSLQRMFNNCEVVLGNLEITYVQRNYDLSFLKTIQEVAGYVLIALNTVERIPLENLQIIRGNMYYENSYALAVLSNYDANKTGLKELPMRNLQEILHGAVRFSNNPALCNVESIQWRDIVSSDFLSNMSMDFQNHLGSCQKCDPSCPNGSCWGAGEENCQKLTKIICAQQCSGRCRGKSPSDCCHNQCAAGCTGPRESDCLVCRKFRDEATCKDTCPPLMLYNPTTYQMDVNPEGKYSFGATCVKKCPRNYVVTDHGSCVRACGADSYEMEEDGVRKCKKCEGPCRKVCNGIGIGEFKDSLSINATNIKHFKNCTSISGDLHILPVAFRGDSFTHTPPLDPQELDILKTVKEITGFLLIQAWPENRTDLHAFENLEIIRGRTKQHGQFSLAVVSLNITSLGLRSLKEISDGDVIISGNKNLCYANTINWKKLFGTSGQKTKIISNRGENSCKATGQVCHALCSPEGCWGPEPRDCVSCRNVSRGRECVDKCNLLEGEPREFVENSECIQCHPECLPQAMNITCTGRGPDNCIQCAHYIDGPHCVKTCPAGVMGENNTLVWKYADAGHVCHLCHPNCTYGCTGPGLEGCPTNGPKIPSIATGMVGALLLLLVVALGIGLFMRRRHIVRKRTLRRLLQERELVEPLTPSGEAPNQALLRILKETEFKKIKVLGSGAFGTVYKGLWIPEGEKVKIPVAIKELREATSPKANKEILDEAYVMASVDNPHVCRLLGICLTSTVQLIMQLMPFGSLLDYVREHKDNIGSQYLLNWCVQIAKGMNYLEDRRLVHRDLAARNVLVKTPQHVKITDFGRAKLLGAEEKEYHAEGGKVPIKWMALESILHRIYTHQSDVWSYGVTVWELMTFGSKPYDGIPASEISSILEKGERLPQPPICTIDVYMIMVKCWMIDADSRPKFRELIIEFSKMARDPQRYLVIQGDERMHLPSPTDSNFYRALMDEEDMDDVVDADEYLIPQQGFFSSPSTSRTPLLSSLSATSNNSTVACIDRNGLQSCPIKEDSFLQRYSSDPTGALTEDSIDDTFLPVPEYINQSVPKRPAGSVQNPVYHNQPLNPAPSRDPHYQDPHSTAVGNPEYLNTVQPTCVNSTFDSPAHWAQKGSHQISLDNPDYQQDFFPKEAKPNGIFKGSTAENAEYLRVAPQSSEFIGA
Chain of Ba/F3-Δ19del/T790M/C797S (P00533 with tags, fused parts or gaps DEL746-750/T790M/C797S, form open): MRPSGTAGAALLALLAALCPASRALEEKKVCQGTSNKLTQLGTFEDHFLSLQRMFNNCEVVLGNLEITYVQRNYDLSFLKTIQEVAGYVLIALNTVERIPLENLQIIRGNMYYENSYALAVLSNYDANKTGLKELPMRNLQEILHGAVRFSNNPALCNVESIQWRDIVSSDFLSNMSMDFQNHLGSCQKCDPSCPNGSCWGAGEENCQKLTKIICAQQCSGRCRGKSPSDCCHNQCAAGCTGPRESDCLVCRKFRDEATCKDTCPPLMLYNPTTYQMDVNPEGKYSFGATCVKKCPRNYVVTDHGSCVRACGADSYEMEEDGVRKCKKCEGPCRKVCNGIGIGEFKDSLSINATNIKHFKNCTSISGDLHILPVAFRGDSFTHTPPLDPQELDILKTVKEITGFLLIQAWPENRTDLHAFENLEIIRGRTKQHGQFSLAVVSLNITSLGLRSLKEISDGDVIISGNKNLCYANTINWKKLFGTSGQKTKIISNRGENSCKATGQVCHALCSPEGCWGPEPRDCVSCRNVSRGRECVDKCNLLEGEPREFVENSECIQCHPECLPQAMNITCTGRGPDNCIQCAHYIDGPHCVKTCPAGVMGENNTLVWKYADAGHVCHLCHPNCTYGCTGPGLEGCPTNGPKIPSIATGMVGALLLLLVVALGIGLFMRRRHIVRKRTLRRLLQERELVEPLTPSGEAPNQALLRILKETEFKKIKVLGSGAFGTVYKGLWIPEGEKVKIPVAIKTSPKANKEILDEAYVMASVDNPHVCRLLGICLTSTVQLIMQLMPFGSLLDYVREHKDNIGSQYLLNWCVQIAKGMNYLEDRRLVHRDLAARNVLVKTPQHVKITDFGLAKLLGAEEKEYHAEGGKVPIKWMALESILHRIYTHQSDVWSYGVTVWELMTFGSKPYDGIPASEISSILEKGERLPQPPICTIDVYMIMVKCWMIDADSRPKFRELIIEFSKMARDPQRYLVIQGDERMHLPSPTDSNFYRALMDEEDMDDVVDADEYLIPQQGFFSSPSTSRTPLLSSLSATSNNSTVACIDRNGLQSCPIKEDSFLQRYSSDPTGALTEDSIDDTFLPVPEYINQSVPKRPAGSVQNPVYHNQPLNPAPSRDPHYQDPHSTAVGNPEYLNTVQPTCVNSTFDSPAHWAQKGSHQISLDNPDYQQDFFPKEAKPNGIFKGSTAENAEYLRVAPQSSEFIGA
Chain of EGFR Δ19del/T790M/C797S (P00533 with tags, fused parts or gaps DEL746-750/T790M/C797S, form open): as above

Structure (SMILES)	IC50 [1]	IC50 (EGFR Δ19del/T790M/C797S; numeric values)	GI50 (Ba/F3-Δ19del/T790M/C797S)	GI50 (Ba/F3-L858R/T790M/C797S)	IC50 (EGFR Δ19del/T790M/C797S; class symbols)	Instrinsic clearance of liver microsomal protein, CLint [2]	Instrinsic clearance of liver microsomal protein, CLint [3]	Instrinsic clearance of liver microsomal protein, CLint [4]	Instrinsic clearance of liver microsomal protein, CLint [5]	Instrinsic clearance of liver microsomal protein, CLint [6]
COc1cc(N2CCC(N(C)C)CC2)c(-c2cnn(C)c2)cc1Nc1ncc(Cl)c(Nc2ccc3nccnc3c2P(C)(C)=O)n1 [Compound 2]	110 nM	0.2 nM	6.5 nM	18.3 nM	–	–	–	–	–	–
COc1cc(N2CCN(C3CCCC3)CC2)c(-c2cnn(C)c2)cc1Nc1ncc(Br)c(Nc2ccc3nccnc3c2P(C)(C)=O)n1 [Compound 25, (6-((5-Bromo-2-((4-(4-cyclopentylpiperazine-1yl)-2-methoxy-5-(1-methyl-1H-pyrozole-4-yl)phenyl)amino)pyrimidin-4-yl)amino)quinoxalin-5-yl) dimethylphosphine oxide]	107 nM	0.3 nM	2.5 nM	4 nM	–	–	–	–	–	–
COc1cc(N2CCC(N(C)C)CC2)c(-c2cnn(C)c2)cc1Nc1ncc(Cl)c(Nc2ccc(C)c(C)c2P(C)(C)=O)n1 [Compound 4, (6-((5-Chloro-2-((4-(4-(dimethylamino)piperidine-1-yl)-2-methoxy-5-(1-methyl-1H-pyrazole-4-yl)phenyl)amino)pyrimidine-4-yl)amino)-2,3-dimethylphenyl)dimethylphosphine oxide]	192 nM	–	10.2 nM	14.9 nM	≤ 1 nM	–	–	–	–	–
CCn1cc(-c2cc(Nc3ncc(Br)c(Nc4ccc(C)c(C)c4P(C)(C)=O)n3)c(OC)cc2N2CCC(N3CCN(C)CC3)CC2)cn1 [Compound 22, (6-((5-Bromo-2-((5-(1-ethyl-1h-pyrazol-4-yl)-2methoxy-4-(4-(4-methylpiperazine-1-yl)piperidin-1-yl)phenyl)amino)pyrimidine-4-yl)amino)-2,3-dimethylphenyl)dimethylphosphine oxide]	3260 nM	4.2 nM	24.6 nM	31.1 nM	–	–	–	–	–	–
COc1cc(N2CCN3CCCCC3C2)c(-c2cnn(C)c2)cc1Nc1ncc(Cl)c(Nc2ccc3nccnc3c2P(C)(C)=O)n1 (stereo in doubt) [Compound 18]	112 nM	0.2 nM	6.7 nM	8.2 nM	–	–	–	–	–	–
CCn1cc(-c2cc(Nc3ncc(Br)c(Nc4ccc(C)c(C)c4P(C)(C)=O)n3)c(OC)cc2N2CCC(N3CCCCC3)CC2)cn1 [Compound 20]	152 nM	0.2 nM	0.7 nM	0.4 nM	–	–	–	–	–	–
COc1cc(N2CCC(N3CCCCC3)CC2)c(-c2cnn(C)c2)cc1Nc1ncc(Cl)c(Nc2ccc3nccnc3c2P(C)(C)=O)n1 [Compound 5, (6-((2-((4-([1,4′-Dipiperidine]-1′-yl)-2-methoxy-5-(1-methyl-1H-pyrazole-4-yl)phenyl)amino)-5-chloropyrimidin-4-yl)amino)quinoxalin-5-yl)dimethylphosphine oxide]	114 nM	–	3 nM	6.5 nM	≤ 1 nM	11.2 μL/min/mg proteins	25.8 μL/min/mg proteins	15.4 μL/min/mg proteins	0.8 μL/min/mg proteins	43.2 μL/min/mg proteins
CCn1cc(-c2cc(Nc3ncc(Br)c(Nc4ccc(C)c(C)c4P(C)(C)=O)n3)c(OC)cc2N2CCOCC2)cn1 [Compound 21]	465 nM	0.3 nM	0.7 nM	3.6 nM	–	–	–	–	–	–

— US20220259235A1, “EGFR Inhibitor, Composition, and Preparation Method Therefor” (BETTA PHARMACEUTICALS CO., LTD, priority 2019, published 2022)
